What was measured:
[1] = tested on: Mus musculus; assay: In vivo activity was determined by measuring […] in mouse forebrain.; format: functional
[2] = molecular target: Acetylcholinesterase (Homo sapiens, UniProt P22303)
Description: Evaluated for the in vitro inhibition of the Acetylcholinesterase (AChE) from human erythrocytes

[3] = species: Mus musculus; assay: animal or person
Description: Tested for effective dose for elevation of Acetylcholinesterase (AChE) in mouse forebrain

[4] = molecular target: Butyrylcholinesterase (Equus caballus, UniProt Q9N1N9)
Description: Compound was evaluated for the in vitro inhibition of the Butyrylcholinesterase from horse serum

[5] = tested on: Mus musculus; assay: Tested for effective dose for […] by peroral administration in vivo in mouse; format: functional; conditions: po

Chain of Butyrylcholinesterase (Q9N1N9 whole entry): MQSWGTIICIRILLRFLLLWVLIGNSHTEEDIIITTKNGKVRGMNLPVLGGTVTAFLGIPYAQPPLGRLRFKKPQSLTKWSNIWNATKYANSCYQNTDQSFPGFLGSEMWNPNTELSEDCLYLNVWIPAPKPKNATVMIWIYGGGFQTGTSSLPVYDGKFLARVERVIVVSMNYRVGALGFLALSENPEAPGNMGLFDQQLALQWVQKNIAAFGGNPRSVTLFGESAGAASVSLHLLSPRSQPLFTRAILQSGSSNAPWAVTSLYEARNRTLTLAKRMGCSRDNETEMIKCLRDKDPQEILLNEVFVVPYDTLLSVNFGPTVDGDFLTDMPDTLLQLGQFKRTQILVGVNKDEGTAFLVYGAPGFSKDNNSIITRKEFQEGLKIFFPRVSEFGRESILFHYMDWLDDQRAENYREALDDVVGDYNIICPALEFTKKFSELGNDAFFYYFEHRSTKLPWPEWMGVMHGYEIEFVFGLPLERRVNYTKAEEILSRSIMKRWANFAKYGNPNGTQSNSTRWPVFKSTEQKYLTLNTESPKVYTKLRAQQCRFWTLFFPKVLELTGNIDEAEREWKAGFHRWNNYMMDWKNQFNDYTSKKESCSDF
Chain of Acetylcholinesterase (P22303 whole entry): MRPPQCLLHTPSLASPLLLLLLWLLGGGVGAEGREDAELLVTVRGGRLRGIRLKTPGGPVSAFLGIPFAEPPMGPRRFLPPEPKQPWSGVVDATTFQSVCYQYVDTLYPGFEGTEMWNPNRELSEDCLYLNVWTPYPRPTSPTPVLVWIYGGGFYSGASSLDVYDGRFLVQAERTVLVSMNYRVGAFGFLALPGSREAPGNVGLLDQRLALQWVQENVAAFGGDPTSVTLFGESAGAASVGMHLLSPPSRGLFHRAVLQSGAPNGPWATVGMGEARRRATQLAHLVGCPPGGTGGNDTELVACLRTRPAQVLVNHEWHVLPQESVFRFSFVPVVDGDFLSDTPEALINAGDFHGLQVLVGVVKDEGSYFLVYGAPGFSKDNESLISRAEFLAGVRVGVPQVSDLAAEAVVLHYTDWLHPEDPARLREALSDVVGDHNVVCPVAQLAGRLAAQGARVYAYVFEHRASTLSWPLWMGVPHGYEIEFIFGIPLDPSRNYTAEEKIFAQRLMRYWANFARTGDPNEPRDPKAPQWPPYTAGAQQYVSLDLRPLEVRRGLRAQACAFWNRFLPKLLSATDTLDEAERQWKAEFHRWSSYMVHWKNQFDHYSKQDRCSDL

SMILES | IC50 [2] [µM] | further results
O=C(Nc1ccc2c(CCC3CCN(Cc4ccccc4)CC3)noc2c1)c1ccccc1 | – | ED50 [1]: > 100 mg/kg
Cc1ccc2onc(CCC3CCN(Cc4ccccc4)CC3)c2c1 | 0.0078 | –
c1ccc(CN2CCC(CCc3ncnc4ccccc34)CC2)cc1 | 0.34 | –
COc1cc2c(cc1OC)C(=O)C(CC1CCN(Cc3ccccc3)CC1)C2 (stereo not drawn) [DONEPEZIL] | – | ED50 [3]: 14 mg/kg
CNC(=O)Oc1ccc2c(c1)[C@]1(C)CCN(C)[C@@H]1N2C [PHYSOSTIGMINE] | – | IC50 [4]: 0.073 µM
N#Cc1ccc2c(CCC3CCN(Cc4ccccc4)CC3)noc2c1 | 0.101 | –
Cc1cc2onc(CCC3CCN(Cc4ccccc4)CC3)c2cc1C | 0.0058 | –
CC(=O)Nc1ccc2c(CCC3CCN(Cc4ccccc4)CC3)noc2c1 | 0.0028 | ED50 [5]: 2.4 mg/kg; IC50 [4]: 9 µM
Brc1ccc2c(CCC3CCN(Cc4ccccc4)CC3)noc2c1 | 0.05 | –
c1ccc(CN2CCC(CCc3noc4cc(N5CCOCC5)ccc34)CC2)cc1 | – | IC50 [4]: 4.7 µM
O=S(=O)(Nc1ccc2c(CCC3CCN(Cc4ccccc4)CC3)noc2c1)c1ccccc1 | 0.014 | –
